{
  "source": "paper PMC5800971",
  "about": "(European journal of medicinal chemistry, 2017)",
  "key": {"[1]": {"tested_on": "breast cancer cell line MDA-MB-231", "assay": "Alamar Blue cytotoxicity assay", "assay_type": "cell-based", "settings": "for fold less potent than ipomoeassin F: MDA-MB-231"}, "[2]": {"tested_on": "MCF7 breast cancer cell line", "assay": "Colorimetric MTT cytotoxicity assay", "assay_type": "cell-based"}, "[3]": {"tested_on": "human breast epithelial cell line MCF-10A", "assay": "Alamar Blue cytotoxicity assay", "assay_type": "cell-based", "settings": "MCF-10A vs MDA-MB-231 / MCF7"}, "[4]": {"tested_on": "A2780 human ovarian cancer cell line", "assay": "Cytotoxicity of ipomoeassins A-F", "assay_type": "cell-based", "settings": "from Table 1 values"}, "[5]": {"tested_on": "A2780 human ovarian cancer cell line", "settings": "read-out: IC50 (nM) A2780; A2780 human ovarian cancer cells; cited from earlier work"}},
  "data": [
    {"smiles": "C/C=C(\\C)C(=O)O[C@@H]1[C@@H](O)[C@@H]2O[C@H]3[C@H](O[C@@H](CCCCC)CCCCCOC(=O)CCC(=O)OC[C@@H](O2)[C@H]1OC(=O)/C=C/c1ccccc1)O[C@H](C)[C@H](OC(C)=O)[C@@H]3O", "note": "[Analogue 1]", "values": [
      {"measurement": "fold less potent than ipomoeassin F", "setting": "[1]", "result": "about 4 fold"},
      {"measurement": "fold less potent than ipomoeassin F", "setting": "[2]", "result": "~2", "unit": "fold"}
    ]},
    {"smiles": "C/C=C(\\C)C(=O)O[C@@H]1[C@@H](O)[C@@H]2O[C@H]3[C@H](O[C@@H](CCCCC)CCCCCNC(=O)CCC(=O)OC[C@@H](O2)[C@H]1OC(=O)/C=C/c1ccccc1)O[C@H](C)[C@H](OC(C)=O)[C@@H]3O", "note": "[Analogue 2]", "values": [
      {"measurement": "selectivity between tumor and non-tumor cells", "setting": "[3]", "result": "slight selectivity towards MDA-MB-231 cells"}
    ]},
    {"smiles": "C/C=C(\\C)C(=O)O[C@@H]1[C@@H](O)[C@@H]2O[C@H]3[C@H](O[C@@H](CCCCC)CCCCCN(C)C(=O)CCC(=O)OC[C@@H](O2)[C@H]1OC(=O)/C=C/c1ccccc1)O[C@H](C)[C@H](OC(C)=O)[C@@H]3O", "note": "[Analogue 21]", "values": [
      {"measurement": "fold less potent than ipomoeassin F", "setting": "[1]", "result": "≤ 2", "unit": "fold"},
      {"measurement": "fold less potent than ipomoeassin F", "setting": "[2]", "result": "≤ 2", "unit": "fold"}
    ]},
    {"smiles": "C/C=C(\\C)C(=O)O[C@@H]1[C@@H](O)[C@@H]2O[C@H]3[C@H](O[C@@H](CCCCC)C/C=C\\CCOC(=O)CCC(=O)OC[C@@H](O2)[C@H]1OC(=O)/C=C/c1ccccc1)O[C@H](C)[C@H](OC(C)=O)[C@@H]3O", "note": "[Analogue 24]", "values": [
      {"measurement": "fold more potent than the E-counterpart 23", "setting": "[1]; breast cancer cell lines of Table 2 (MDA-MB-231, MCF7)", "result": "~ 3 fold"}
    ]},
    {"smiles": "C/C=C(\\C)C(=O)O[C@@H]1[C@@H](O)[C@@H]2O[C@H]3[C@H](O[C@@H](CCCCC)CCCCOC(=O)CCC(=O)OC[C@@H](O2)[C@H]1OC(=O)/C=C/c1ccccc1)O[C@H](C)[C@H](OC(C)=O)[C@@H]3O", "note": "[Analogue 25]", "values": [
      {"measurement": "fold activity loss compared to 1", "setting": "[1]; MDA-MB-231 (printed MBA-BD-231)", "result": 9, "unit": "fold"},
      {"measurement": "fold activity loss compared to 1", "setting": "[2]", "result": 9, "unit": "fold"}
    ]},
    {"smiles": "C/C=C(\\C)C(=O)O[C@@H]1[C@@H](O)[C@@H]2O[C@H]3[C@H](O[C@@H](CCC)CCCCC[C@H](O)C(=O)CCC(=O)OC[C@@H](O2)[C@H]1OC(=O)/C=C/c1ccccc1)O[C@H](C)[C@H](OC(C)=O)[C@@H]3O", "note": "[Ipomoeassin C]", "values": [
      {"measurement": "fold activity difference between ipomoeassin C and ipomoeassin A/D", "setting": "[4]", "result": "up to 80 fold"}
    ]},
    {"smiles": "C/C=C(\\C)C(=O)O[C@@H]1[C@@H](O)[C@@H]2O[C@H]3[C@H](O[C@@H](CCC)CCCCC[C@H](OC(C)=O)C(=O)CCC(=O)OC[C@@H](O2)[C@H]1OC(=O)/C=C/c1ccccc1)O[C@H](C)[C@H](OC(C)=O)[C@@H]3O", "note": "[Ipomoeassin D]", "values": [
      {"measurement": "fold potency enhancement, R1 H to OAc (A vs. D)", "setting": "[4]; A2780", "result": "up to 14 fold"}
    ]},
    {"smiles": "C/C=C(\\C)C(=O)O[C@@H]1[C@@H](O)[C@@H]2O[C@H]3[C@H](O[C@@H](CCC)CCCCC[C@H](OC(C)=O)C(=O)CCC(=O)OC[C@@H](O2)[C@H]1OC(=O)/C=C/c1ccccc1)O[C@H](C)[C@H](O)[C@@H]3O", "note": "[Ipomoeassin E]", "values": [
      {"measurement": "fold activity loss, R1 H to OAc (B vs. E)", "setting": "[4]; A2780", "result": 8, "unit": "fold"},
      {"measurement": "IC50", "setting": "[5]", "result": 3300, "unit": "nM"}
    ]}
  ]
}
